Laboratory results: patent publication US11008325B2, “Inhibitors of cancer invasion, attachment, and/or metastasis” (VIRGINIA COMMONWEALTH UNIVERSITY, priority 2016, dated 2021)
Entries after “also recorded” stand apart in the source; their conditions may differ. Where two headings read alike, the source gives them in different places.

Tests used:
[1] = target: T1, MDA-9 PDZ12 tandem domain (PDZ1) (Homo sapiens, UniProt O00560); assay: NMR [15N,1H] HSQC chemical shift change and titration binding
T1 construct: the MDA-9/Syntenin construct used for the screen contains both PDZ domains; made in house
T1 sequence (O00560 110-274): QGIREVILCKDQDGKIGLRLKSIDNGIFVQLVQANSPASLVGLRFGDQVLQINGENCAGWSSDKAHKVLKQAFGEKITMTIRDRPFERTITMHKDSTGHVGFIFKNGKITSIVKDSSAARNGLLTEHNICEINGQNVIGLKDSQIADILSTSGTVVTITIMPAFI
Description: FIGS. 4A-4E. FIG. 4A. […] FIG. 4B. Superposition of 2D [^15N, ^1H]-HSQC spectra of 50 μM MDA-9 PDZ12 tandem domain in the absence and presence of 350 μM 113B7. FIG. 4C. Binding curve and representative spectra for the titration of 113B7 against MDA-9 PDZ12 tandem domain. Top: Zoom of box region in FIG. 4B after titrating 113B7 into Mda9 PDZ, tandem domain. […] Bottom: Titration curve of 113B7 for residue A147. […] FIG. 4D. […] FIG. 4E. Docked structure of 113B7 in complex with MDA-9 PDZ tandem domain (PDB: 1W9E). The pose was obtained with GOLD. Two PDZ domains of MDA-9 are labeled.
NMR based screening of an house assembled fragment library of about 5,000 compounds using [^15N,^1H] […] The proposed docked structure of PDZ1i in the PDZ1 domain and interdomain of MDA-9/Syntenin is shown in FIGS. 4A-4E and FIG. 5, while the chemical structure of PDZ1i is also shown in FIGS. 4A-4E and FIG. 5.
In all binding assays, the MDA-9/Syntenin construct used for the screen contains both PDZ domains. Constructs uniformly labeled with ^15N and ^13C or ^13C-Met selectively labeled are used for binding, mapping and structural studies. These same proteins are used for ITC binding studies.

[2] = pharmacokinetics after IV and IP administration; format: in vivo, Balb/c mice; settings: for concentration at 0.25 h: 0.250 h
[3] = system: MMP-2 and MMP-9; assay: western blotting and gelatin zymography of conditioned media; format: cell-based; settings: 50 μM, 24 h
[4] = system: RM1-Luc cells; assay: RM1-Luc intracardiac metastasis model; format: in vivo, C57BL/6 mice; settings: I.P., 3 injections/first week
Description: FIG. 19A-19F. PDZ1i suppresses prostate cancer metastasis and tumor progression. FIG. 19A) Survival data for athymic nude mice in which DMSO or PDZ1i pre-treated ARCaPM cells were injected. FIG. 19B) Survival data for athymic nude mice which were injected with (n=5, each group) ARCaPM-Luc (1×10^6 cells in 100 μl saline) through an intracardiac route. Mice received either vehicle or PDZ1i every alternative day (9 injections during the first […]) and maintained until they needed to be euthanized. FIG. 19C) Survival data for C57BL/6 mice injected through the intracardiac route with RM1-Luc. Vehicle or PDZ1i was administered through intraperitoneal injection every alternate day (total 3 injections during the first week). Survival curves were generated using 6 control vehicle-treated and 5 PDZ1i-treated. Kaplan—Meier survival curves were prepared using Graph Pad software. […] Graphical representation of the average prostate weights from control and treated groups. FIG. 19E and FIG. 19F) Photomicrographs representing the histological changes in prostate sections obtained from 6-month old Hi-Myc mice receiving either vehicle (FIG. 19E) or PDZ1i (FIG. 19F). To evaluate potential therapeutic efficacy of PDZ1i four sets of in vivo experiments were conducted. […]

[5] = Balb/c, mouse, plasma, IP 30 mg/kg
[6] = Balb/c, mouse, plasma, IP 30 mg/kg, read-out: Plasma Concentration, Mean IP
[7] = Balb/c, mouse, plasma, IV 3 mg/kg, read-out: Plasma Concentration, Mean IV

In the case of `Cc1cc(NC(=O)c2nc3[nH]c4c(c(=O)n3n2)CCC4)c(C)cc1NC(=O)CCc1nnc(-c2ccccc2)o1` [113B7, N-(2,5-dimethyl-4-(3-(5-phenyl-1,3,4-oxadiazol-2-yl)propanamido)phenyl)-8-oxo-5,6,7,8-tetrahydro-4H-cyclopenta[d][1,2,4]triazolo[1,5-a]pyrimidine-2-carboxamide], the “dissociation constant / affinity in words” value ([1]; NMR titration (and ITC)) is reported as “low micromolar range; also recorded: micromolar affinity”, the Kd ([1]; NMR titration following backbone amide of residue 147, read-out: Kd values) is reported as 21.4 ± 8.62 µM and the Kd ([1]; NMR titration, read-out: upper limit for the dissociation constant of the complex, Kd) is reported as under 10 µM. The Binding affinity ranking ([1]; chemical shift change (DPPM) of backbone amide of residue 147, 50 μM PDZ12, compound at 1:1 molar ratio) was 4 (4 for DPPM 0.06-0.08), the Kd ([1]; estimated by NMR titration in 2D HSQC experiments (Table 4), read-out: Kd) was about 10 µM and the “signs of toxicity during the PK experiment” value ([2]; 3.0 mg/Kg IV and 30.0 mg/Kg IP, mice) was “lack of adverse signs of toxicity”. It also gave a half-life ([2]; Balb/c, mouse, intravenous, intraperitoneal, in each route: 3.0 mg/Kg IV and 30.0 mg/Kg IP, mice, serum, read-out: T1/2 (very slow clearance)) of over 9 h, a bioavailability ([2]; Balb/c, mouse, plasma, intraperitoneal, 30 mg/kg, IP 30 mg/kg versus IV 3 mg/kg, read-out: Bioavailability (IP/IV)) of 81.2% and an AUC ([2]; Balb/c, mouse, plasma, ip, 30 mg/kg, IP 30 mg/kg, read-out: AUC0-int (first line)) of 975 µg·h/mL. The AUC ([2]; Balb/c, mouse, plasma, ip, 30 mg/kg, IP 30 mg/kg, read-out: AUC0-int (second line)) was 1180 µg·h/mL, the AUC ([2]; Balb/c, mouse, plasma, iv, 3 mg/kg, IV 3 mg/kg, read-out: AUC0-int (first line)) was 120 µg·h/mL and the AUC ([2]; Balb/c, mouse, plasma, iv, 3 mg/kg, IV 3 mg/kg, read-out: AUC0-int (second line)) was 124 µg·h/mL. The Cmax [2, 5] was 98200 ng/mL, the Tmax [2, 5] was 0.25 h and the concentration at 0.25 h [2, 6] was 98200 ng/mL. It also gave a concentration at 1 h [2, 6] of 69200 ng/mL, a concentration at 2 h [2, 6] of 59000 ng/mL and a concentration at 6 h [2, 6] of 54600 ng/mL. It also gave a concentration at 12 h [2, 6] of 42800 ng/mL, a concentration at 24 h [2, 6] of 15100 ng/mL and a half-life ([2]; Balb/c, mouse, plasma, IP 30 mg/kg, read-out: T1/2 (converted)) of 9.42 h. The C0 ([2]; Balb/c, mouse, plasma, IV 3 mg/kg) was 35000 ng/mL, the concentration at 0.25 h [2, 7] was 29500 ng/mL and the concentration at 1 h [2, 7] was 17700 ng/mL. For the same compound, the concentration at 2 h [2, 7] was 11600 ng/mL, the concentration at 6 h [2, 7] was 6110 ng/mL and the concentration at 12 h [2, 7] was 3360 ng/mL. It also gave a concentration at 24 h [2, 7] of 541 ng/mL, a half-life ([2]; Balb/c, mouse, plasma, IV 3 mg/kg, read-out: T1/2 (converted)) of 5.06 h and a half-life ([2]; Balb/c, mouse, serum, intravenous and intraperitoneal, in vivo, read-out: half-life (t1/2) (converted)) of 9 h. For the same compound, the bioavailability ([2]; Balb/c, mouse, serum, ip, 30 mg/kg, administered I.P. 30.0 mg/Kg, mice, read-out: bioavailability) was 80%, the bioavailability ([2]; administered I.P. 30.0 mg/Kg, mice, 30 mg/kg) was about 100% and the “MMP-2 and MMP-9 protein and activity level” value [3] was “downregulates”. The “tumor burden in the lungs” value [4] was “significantly reduced the tumor burden in the lungs”.
